Experimental data from US8618094B2, “Fused substituted aminopyrrolidine derivative” (Daiichi Sankyo Company, Limited, priority 2007, dated 2013).
Converted amounts (≈) assume the structure as drawn. Where two headings read alike, the source gives them in different places.

How the values were obtained:
Experiment in all cases: Antibacterial activity (MIC), standard method of the Japanese Society of Chemotherapy
Type in all cases: cell-based
[1] = test system: S. aureus FDA 209-P; settings: Staphylococcus aureus, FDA209
Procedure: (§1) Antibacterial activity of the compounds of the present invention was measured in accordance with the standard method specified by the Japanese Society of Chemotherapy.

[2] = test system: K. pneumoniae TYPE 1; settings: Klebsiella pneumoniae, TYPE1
Procedure: as §1

[3] = test system: M(B). Caterrhalis ATCC25238
Procedure: as §1

[4] = test system: H. influenzae ATCC49247; settings: Haemophilus influenzae
Procedure: as §1

[5] = test system: P. aeruginosa PAO1; settings: Pseudomonas aeruginosa
Procedure: as §1

[6] = test system: E. coli NIHJ; settings: Escherichia coli
Procedure: as §1

[7] = test system: E. faecalis 19433; settings: Enterococcus faecalis
Procedure: as §1

[8] = test system: S. pyogenes JCM5674(ATCC12344); settings: Streptococcus pyogenes
Procedure: as §1

[9] = test system: S. pneumoniae J24; settings: Streptococcus pneumoniae
Procedure: as §1

[10] = test system: S. pneumoniae 104835; settings: Streptococcus pneumoniae
Procedure: as §1

[11] = test system: E. cloacae 03400; settings: Enterobacter cloacae
Procedure: as §1

[12] = test system: S. marcescens 10100; settings: Serratia marcescens
Procedure: as §1

[13] = test system: S. epidermidis 56500; settings: Staphylococcus epidermidis
Procedure: as §1

[14] = test system: P. mirabilis 08103; settings: Proteus mirabilis
Procedure: as §1

[15] = test system: S. aureus 870307; settings: Staphylococcus aureus
Procedure: as §1

[16] = M(B). Caterrhalis ATCC25238 (first half of Table 2), read-out: MIC, M(B). Caterrhalis ATCC25238
[17] = H. influenzae ATCC49247 (first half of Table 2), read-out: MIC, H. influenzae ATCC49247
[18] = M(B). Caterrhalis [sic] ATCC49247 (Table 2), read-out: MIC, M(B). Caterrhalis ATCC49247
[19] = ATCC 25238 / ATCC 49247, H. influenzae ATCC25238 as printed (second half of Table 2), read-out: MIC, H. influenzae ATCC25238

Compound | MIC [1] | MIC [2] | MIC [3, 16] | MIC [4, 17] | MIC [5] | MIC [6] | MIC [7] | MIC [8] | MIC [9] | MIC [10] | MIC [11] | MIC [12] | MIC [13] | MIC [14] | MIC [15] | MIC [3, 18] | MIC [4, 19]
Cc1c(N2C[C@]3(N)CCC[C@]3(F)C2)c(F)cc2c(=O)c(C(=O)O)cn([C@@H]3C[C@@H]3F)c12 [Example 17, 7-[(1R,5S)-1-Amino-5-fluoro-3-azabicyclo[3.3.0]octan-3-yl]-6-fluoro-1-[(1R,2S)-2-fluorocyclopropane]-1,4-dihydro-8-methyl-4-oxoquinoline-3-carboxylic acid] | 0.006 µg/mL (≈ 0.0142 µM) | 0.012 µg/mL (≈ 0.0285 µM) | 0.006 µg/mL (≈ 0.0142 µM) | ≤ 0.003 µg/mL | 0.2 µg/mL (≈ 0.475 µM) | ≤ 0.003 µg/mL | 0.05 µg/mL (≈ 0.119 µM) | 0.025 µg/mL (≈ 0.0593 µM) | 0.025 µg/mL (≈ 0.0593 µM) | 0.1 µg/mL (≈ 0.237 µM) | 0.006 µg/mL (≈ 0.0142 µM) | 0.05 µg/mL (≈ 0.119 µM) | 0.025 µg/mL (≈ 0.0593 µM) | 0.006 µg/mL (≈ 0.0142 µM) | 0.2 µg/mL (≈ 0.475 µM) |  | 
COc1c(N2C[C@H]3[C@H](C)C[C@@]3(N)C2)c(F)cc2c(=O)c(C(=O)O)cn([C@@H]3C[C@@H]3F)c12 [Example 5, 7-{(1S,5R,6R)-1-Amino-6-methyl-3-azabicyclo[3.2.0]hept-3-yl}-6-fluoro-1-[(1R,2S)-2-fluorocyclopropyl]-1,4-dihydro-8-methoxy-4-oxoquinoline-3-carboxylic acid] | 0.006 µg/mL (≈ 0.0143 µM) | 0.1 µg/mL (≈ 0.238 µM) | 0.05 µg/mL (≈ 0.119 µM) | 0.012 µg/mL (≈ 0.0286 µM) | 0.78 µg/mL (≈ 1.86 µM) | 0.025 µg/mL (≈ 0.0596 µM) | 0.1 µg/mL (≈ 0.238 µM) | 0.05 µg/mL (≈ 0.119 µM) | 0.025 µg/mL (≈ 0.0596 µM) | 0.2 µg/mL (≈ 0.477 µM) | 0.025 µg/mL (≈ 0.0596 µM) | 0.2 µg/mL (≈ 0.477 µM) | 0.025 µg/mL (≈ 0.0596 µM) | 0.025 µg/mL (≈ 0.0596 µM) | 0.2 µg/mL (≈ 0.477 µM) |  | 
COc1c(N2CC3=CCCC3(N)C2)c(F)cc2c(=O)c(C(=O)O)cn([C@@H]3C[C@@H]3F)c12 (single isomer, unassigned) [Example 25] | 0.025 µg/mL (≈ 0.0599 µM) | 0.05 µg/mL (≈ 0.12 µM) | 0.025 µg/mL (≈ 0.0599 µM) | 0.006 µg/mL (≈ 0.0144 µM) | 0.39 µg/mL (≈ 0.934 µM) | 0.012 µg/mL (≈ 0.0287 µM) | 0.2 µg/mL (≈ 0.479 µM) | 0.05 µg/mL (≈ 0.12 µM) | 0.05 µg/mL (≈ 0.12 µM) | 0.39 µg/mL (≈ 0.934 µM) | 0.012 µg/mL (≈ 0.0287 µM) | 0.1 µg/mL (≈ 0.24 µM) | 0.1 µg/mL (≈ 0.24 µM) | 0.025 µg/mL (≈ 0.0599 µM) | 0.39 µg/mL (≈ 0.934 µM) |  | 
C[C@H]1COc2c(N3C[C@@H]4CCCC[C@@]4(N)C3)c(F)cc3c(=O)c(C(=O)O)cn1c23 [Example 34, 10-[(1S,6S)-1-Amino-8-azabicyclo[4.3.0]nonan-8-yl]-9-fluoro-2,3-dihydro-3-(S)-methyl-7-oxo-7H-pyrido[1,2,3-de][1,4]benzoxazine-6-carboxylic acid] | 0.025 µg/mL (≈ 0.0623 µM) | 0.025 µg/mL (≈ 0.0623 µM) |  |  | 0.2 µg/mL (≈ 0.498 µM) | 0.006 µg/mL (≈ 0.0149 µM) | 0.1 µg/mL (≈ 0.249 µM) | 0.05 µg/mL (≈ 0.125 µM) | 0.1 µg/mL (≈ 0.249 µM) | 0.39 µg/mL (≈ 0.972 µM) | 0.006 µg/mL (≈ 0.0149 µM) | 0.05 µg/mL (≈ 0.125 µM) | 0.05 µg/mL (≈ 0.125 µM) | 0.012 µg/mL (≈ 0.0299 µM) | 0.39 µg/mL (≈ 0.972 µM) | 0.012 µg/mL (≈ 0.0299 µM) | 0.006 µg/mL (≈ 0.0149 µM)
COc1c(N2CC3(N)CCC4CC43C2)c(F)cc2c(=O)c(C(=O)O)cn([C@@H]3C[C@@H]3F)c12 (single isomer, unassigned) [Example 27] | 0.012 µg/mL (≈ 0.0278 µM) | 0.1 µg/mL (≈ 0.232 µM) | 0.05 µg/mL (≈ 0.116 µM) | 0.006 µg/mL (≈ 0.0139 µM) | 0.78 µg/mL (≈ 1.81 µM) | 0.012 µg/mL (≈ 0.0278 µM) | 0.1 µg/mL (≈ 0.232 µM) | 0.05 µg/mL (≈ 0.116 µM) | 0.025 µg/mL (≈ 0.0579 µM) | 0.2 µg/mL (≈ 0.464 µM) | 0.025 µg/mL (≈ 0.0579 µM) | 0.2 µg/mL (≈ 0.464 µM) | 0.05 µg/mL (≈ 0.116 µM) | 0.05 µg/mL (≈ 0.116 µM) | 0.2 µg/mL (≈ 0.464 µM) |  | 
COc1c(N2C[C@@H]3CCCC[C@@]3(N)C2)c(F)cc2c(=O)c(C(=O)O)cn([C@@H]3C[C@@H]3F)c12 [Example 31, 7-[(1S,6S)-1-Amino-8-azabicyclo[4.3.0]nonan-8-yl]-6-fluoro-1-[(1R,2S)-2-fluorocyclopropyl]-8-methoxy-1,4-dihydro-4-oxoquinoline-3-carboxylic acid] | 0.012 µg/mL (≈ 0.0277 µM) | 0.05 µg/mL (≈ 0.115 µM) |  |  | 0.39 µg/mL (≈ 0.9 µM) | 0.006 µg/mL (≈ 0.0138 µM) | 0.1 µg/mL (≈ 0.231 µM) | 0.025 µg/mL (≈ 0.0577 µM) | 0.025 µg/mL (≈ 0.0577 µM) | 0.2 µg/mL (≈ 0.461 µM) | 0.012 µg/mL (≈ 0.0277 µM) | 0.1 µg/mL (≈ 0.231 µM) | 0.05 µg/mL (≈ 0.115 µM) | 0.012 µg/mL (≈ 0.0277 µM) | 0.1 µg/mL (≈ 0.231 µM) | 0.025 µg/mL (≈ 0.0577 µM) | 0.012 µg/mL (≈ 0.0277 µM)
O=C(O)c1cn(C2CC2)c2cc(N3CCNCC3)c(F)cc2c1=O [CPFX, ciprofloxacin, reference compound] | 0.1 µg/mL (≈ 0.302 µM) |  |  |  | 0.05 µg/mL (≈ 0.151 µM) | ≤ 0.003 µg/mL | 0.78 µg/mL (≈ 2.35 µM) | 0.39 µg/mL (≈ 1.18 µM) | 0.78 µg/mL (≈ 2.35 µM) | > 6.25 µg/mL |  |  | 0.2 µg/mL (≈ 0.604 µM) | 0.012 µg/mL (≈ 0.0362 µM) | > 6.25 µg/mL |  | 
